According to patent US20080131867A1, “Method for Determining the Effectiveness of a Treatment for Preeclampsia” (priority 2006, published 2008):

How the values were obtained:
[1] = tested on: PP13 release from placental (villous) explants; assay: PP13 release from placental (villous) explants cultured 48 hours (FIGS. 7-11); format: cell-based, human
Protocol: The tissue of each woman was divided into 16 different portions, exposed each to diversified conditions and cultured for 48 hours;
The following results were obtained with placental (villous) explants from 16 cases of normal women, 12 cases of preeclampsia and 3 cases of HELLP women, which were cultured in DMEM/F12 for 48 hours at 6% or 20% O2. Conditioned media was collected after culture and tested for total protein and PP13. PP13 release was related to total protein.
The explants tested in Example 6 were retested using, in addition to the two oxygen levels, two different levels of magnesium, 0.7 mM and 1.4 mM.
Note that the latter combination also affected the HELLP cases. […]

[2] = tested on: PP13 release from placenta explants; assay: Therapeutic effectiveness on PP13 release from standardized placenta explants in presence of patient serum (indirect method); format: cell-based, human
Text: Scenario 1: Simple Direct Tailoring with a Diversity of Drugs. • We have standardized culture conditions for first trimester explants or explants obtained after delivery. • Explants could be the ones made of patients after delivery or those obtained by Chorionic villi sampling (CVS) at gestational weeks 10-12 or other placenta biopsies as the case may be. • Standardization means defined median viability index, protein content in the explant, total protein released to the medium, PP13 content in the explant and PP13 release from the explant, among others. • Drug effect in-vitro is the effect of drug applied to the culture medium on PP13 release from the placenta explant after 24 hr to 7 days. The effect is compared to the baseline release as measured without the drug. • The Therapeutic Index is thus the in-vitro relative effectiveness of the drug when applied to explants as measured by the difference between PP13 release with (PP13D1) and without (PP130) the drug by the equation: (PP130−PP13D1)/PP130, after normalizing to viability, protein content etc as described above, given all other parameters are the same. • It is important to note that in the first trimester (gestational weeks 6-13) PP13 in diseased patient is lower than Normal. Thus the therapeutic index is to return PP13 release is calculated as drugs that elevate PP13 release. In the third trimester (gestational week 26 and above), PP13 is higher in preeclamptic patients than normal. Thus the therapeutic index is decreasing PP13 release back to Normal. • According to the in-vitro therapeutic index one drug or a drug combinations are selected for the in-vivo interventional medication treatment. • Follow up: after selecting the drug to be administrating to the patient, bi-weekly blood testing follow up is recommended to be carried out by measuring the PP13 in the blood and calculating
If so, drugs that appears beneficial to standardized culture explants wouldn't work when applied together with the patient samples. It can be seen that the serum from the patient at high risk for preeclampsia caused serious inhibition of many of the types of treatment.

[3] = tested on: PP13 release from cultured chorionic villi; assay: PP13 release from cultured chorionic villi of GW 9-10 (48 hr culture, ELISA); format: cell-based, human; conditions: for PP13 (pg/ml) release: 48 hr
Protocol: From left to right, the explants are shown at transfer (6 hours) and after 36 hr in culture. Cultures are grown in conditioned medium. After 48 hr in culture, the supernatant is collected, centrifuged and the […] is diluted in PBS and checked for the concentration of PP13 by sandwich ELISA using PP13 standards to calibrate the reaction OD to PP13 concentration. The PP13 level may be normalized to the gestational age according to the linear regression of the total points and to the protein level of the explant; […] The placenta cells/explants were cultured for 48 hr and PP13 was measured in the culture medium by ELISA (in the same manner as described in FIG. 1).

PP13 = assay: Serum PP13 values and 1st-to-2nd trimester slope in women treated with vitamin E (FIG. 4); format: in vivo, human
Protocol: Unless otherwise indicated, in all experiments, PP13 was measured (blinded to pregnancy outcome) in maternal venous serum by solid-phase sandwich ELISA assay. The PP13 level was calibrated according to standard curves prepared from calibrated standards of recombinant PP13. Concentrations are given in pg PP13/ml serum.
The slope may be calculated as follows:
Slope=(PP13(2nd trimester)−PP13(1st trimester)/GW(2nd trimester)−GW(1st trimester)).
Normal vs. preeclampsia slopes are shown in FIG. 4, and the cutoff between normal and preeclampsia to reach 80% sensitivity is a slope of 3.5. The slope helps to further verify the risk for preeclampsia.
If after establishing the risk by two tests the women at high risk are treated daily by administering the anti-oxidant vitamin E, the treated women have a lower slope (FIG. 4). From the relatively large confidence level one can see that not all women were affected in the same way. Thus, the approach can be further used to enable one to see how the slope can be reduced by medications and its correlation to the reduced risk to develop the pathology, thereby considering discontinuing the treatment, elevating the drug level or selecting a different treatment for individual patients. The combined and contingent approaches indicate that multiple testing is necessary only for women at risk whereas low risk patients may avoid repeated testing.

[4] = applied with serum from a Normal Patient
[5] = applied with serum from a Patient at high risk for preeclampsia

With `[Cl-].[Cl-].[Mg+2]` [Magnesium, MgCl2] the “Effect on PP13 release” value ([1]; HELLP explants, hyperoxia (20%), increase in Mg (1.4 mM)) was “elevated release of PP13”, the “Effect on PP13 release” value ([1]; HELLP explants, normoxia (6%), elevated Mg (1.4 mM)) was “elevated release of PP13” and the “Effect on PP13 release” value ([1]; explants from normal pregnant women, elevated oxygen (20%) and MgCl2 (1.4 mM)) was “not affected”. The “Effect on PP13 release” value ([1]; preeclamptic explants, magnesium 1.4 mM in 6% oxygen) was “not in 6% oxygen”, the “Effect on PP13 release” value ([1]; preeclamptic explants, magnesium 1.4 mM in 20% oxygen) was “brought back to the normal level” and the “Therapeutic Effectiveness on PP13 release from placenta explants” value (shortened to “Therapeutic Effectiveness”) [2, 4] was 50%. The “Therapeutic Effectiveness” value [2, 5] was 20%.

In the case of `O=O` [Oxygen, oxygen], the “Effect on PP13 release” value ([1]; explants from HELLP cases, 20% vs 6% oxygen, 48 hours, listed as O2) is reported as “reduced by 20% O2 to below the normal level”, the “Effect on PP13 release” value ([1]; explants from HELLP cases, 20% vs 6% oxygen, 48 hours, listed as hyperoxia) is reported as “almost complete halt in PP13 release” and the “Effect on PP13 release” value ([1]; explants from normal women, 20% vs 6% oxygen, 48 hours) is reported as “no effect”. The “Effect on PP13 release” value ([1]; explants from normal women, 20% vs 6% oxygen, 48 hours, listed as hyperoxia) was “remained at the same level”, the “Effect on PP13 release” value ([1]; explants from preeclampsia women, 20% vs 6% oxygen, 48 hours) was “decreased significantly” and the “Effect on PP13 release” value ([1]; explants from preeclampsia women, 20% vs 6% oxygen, 48 hours, listed as hyperoxia) was “significantly less PP13 release”. For the same compound, the “Increase of PP13 release under 20% oxygen compared to 6% oxygen” value ([3]; 3 high risk women, no vitamin C) was roughly 2 factor, the “PP13 (pg/ml) release” value ([3]; Case 1, normal risk, 20% oxygen (hyperoxia), no vitamin C) was 14,250 pg/ml and the “PP13 (pg/ml) release” value ([3]; Case 2, normal risk, 20% oxygen (hyperoxia), no vitamin C) was 15,500 pg/ml. The “PP13 (pg/ml) release” value ([3]; Case 3, high-risk (preeclampsia), 20% oxygen (hyperoxia), no vitamin C) was 5,000 pg/ml, the “PP13 (pg/ml) release” value ([3]; Case 3, high-risk (preeclampsia), 20% oxygen (hyperoxia), no vitamin C, listed as oxygen) was 5000 pg/mL and the “PP13 (pg/ml) release” value ([3]; Case 4, high-risk (preeclampsia), 20% oxygen (hyperoxia), no vitamin C) was 4,300 pg/ml. The “PP13 (pg/ml) release” value ([3]; Case 5, high-risk (preeclampsia), 20% oxygen (hyperoxia), no vitamin C) was 7,900 pg/ml.

For `O=C1O[C@H]([C@@H](O)CO)C(O)=C1O` [Vitamin C, vitamin C], the “Increase of PP13 release with vitamin C vs. without” value ([3]; 3 high risk women, 6% oxygen, 48 hours incubation) was 3-4 times, the “PP13 (pg/ml) release” value ([3]; Case 1, normal risk, 6% oxygen, with vitamin C) was 14,300 pg/ml and the “PP13 (pg/ml) release” value ([3]; Case 1, normal risk, 20% oxygen, with vitamin C) was 14990 pg/mL. The “PP13 (pg/ml) release” value ([3]; Case 2, normal risk, 6% oxygen, with vitamin C) was 15,390 pg/ml, the “PP13 (pg/ml) release” value ([3]; Case 2, normal risk, 20% oxygen, with vitamin C) was 15,300 pg/ml and the “PP13 (pg/ml) release” value ([3]; Case 3, high-risk (preeclampsia), 6% oxygen, with vitamin C) was 12,030 pg/ml. The “PP13 (pg/ml) release” value ([3]; Case 3, high-risk (preeclampsia), 20% oxygen, with vitamin C) was 5,100 pg/ml, the “PP13 (pg/ml) release” value ([3]; Case 4, high-risk (preeclampsia), 6% oxygen, with vitamin C) was 9,230 pg/ml and the “PP13 (pg/ml) release” value ([3]; Case 4, high-risk (preeclampsia), 20% oxygen, with vitamin C) was 4,421 pg/ml. For the same compound, the “PP13 (pg/ml) release” value ([3]; Case 5, high-risk (preeclampsia), 6% oxygen, with vitamin C) was 15760 pg/mL, the “PP13 (pg/ml) release” value ([3]; Case 5, high-risk (preeclampsia), 6% oxygen, with vitamin C, listed as vitamin C) was 15,790 pg/ml and the “PP13 (pg/ml) release” value ([3]; Case 5, high-risk (preeclampsia), 20% oxygen, with vitamin C) was 8,100 pg/ml. For the same compound, the “Additional effect of vitamin C on PP13 release under 20% oxygen” value ([3]; high risk women, 20% oxygen (hyperoxia)) was “no additional effect”.

In the case of aprotinin, the “Effect on PP13 release” value ([1]; HELLP explants, normoxia and high Mg (FIG. 11B)) is reported as “almost back to normal”.

For heparin, the “Effect on PP13 release” value ([1]; hyperoxia and normal Mg (FIG. 11C)) was “almost back to normal”, the “Therapeutic Effectiveness” value [2, 4] was 56% and the “Therapeutic Effectiveness” value [2, 5] was 20%.

For vitamin E, the “Effect on PP13” value (PP13; 16-20 weeks, vitamin E) was “no significant effect”, the “Effect on PP13 level/release” value (PP13; cases of preeclampsia, 6-10 weeks, early application of vitamin E) was “doubles PP13 release towards the normal level” and the “Effect on PP13 release” value (PP13; normal patients, 6-10 weeks, vitamin E) was “without affecting PP13 release”. The “Effect on PP13 release” value (PP13; preeclamptic women, 24-28 weeks, vitamin E) was “reduces PP13 release back to the normal level”, the “PP13 slope (1st-to-2nd trimester)” value (PP13; women at high risk treated daily with vitamin E) was “lower slope” and the “Therapeutic Effectiveness” value [2, 4] was 30%. The “Therapeutic Effectiveness” value [2, 5] was 0%.
